In patent publication US20070049593A1 (priority 2004, published 2007):
Counter-ions that a name gives are not always drawn.

The molecules below were run against T1, HCV polymerase (Hepatitis C virus genotype 1b, UniProt P26663) (assay: biochemical).
T1 construct: a region encoding NS5B (J Virol 1991 March, 65(3), 1105-13, 544 amino acids after deletion of 47 amino acids on the C-terminal); 6xHis (C); made in house; host or cells: Escherichia coli
Parameters: species or system HCV BK strain
Summary of the method: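 Recombinant HCV BK-strain NS5B (C-terminal 47 aa deleted, His6-tagged, E. coli), 0.5 μg/ml, run with 5 μg/ml in vitro-transcribed RNA template (polyU/3′X), ATP/GTP/CTP 50 μM, UTP 2 μM plus [3H]UTP, pH 7.5, 25° C, 90 min. TCA-precipitated RNA counted by scintillation; IC50 from activity with vs without compound.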

T1 sequence (P26663 2420-2963): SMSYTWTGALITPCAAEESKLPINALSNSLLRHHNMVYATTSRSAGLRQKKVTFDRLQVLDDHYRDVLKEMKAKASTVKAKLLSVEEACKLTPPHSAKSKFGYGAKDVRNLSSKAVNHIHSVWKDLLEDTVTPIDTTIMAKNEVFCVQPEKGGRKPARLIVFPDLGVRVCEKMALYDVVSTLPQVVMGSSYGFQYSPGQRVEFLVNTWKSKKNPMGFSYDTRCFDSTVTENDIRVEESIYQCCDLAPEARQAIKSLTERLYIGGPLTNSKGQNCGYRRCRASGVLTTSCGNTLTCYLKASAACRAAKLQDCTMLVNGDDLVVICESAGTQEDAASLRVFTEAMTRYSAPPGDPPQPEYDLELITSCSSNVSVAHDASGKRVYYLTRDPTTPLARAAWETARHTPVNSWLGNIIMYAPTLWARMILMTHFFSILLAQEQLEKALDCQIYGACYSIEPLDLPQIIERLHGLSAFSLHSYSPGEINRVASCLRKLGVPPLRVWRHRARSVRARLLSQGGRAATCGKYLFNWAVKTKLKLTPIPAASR

For `Cc1cc(COc2ccc3c(c2)OCCn2c-3c(C3CCCCC3)c3ccc(C(=O)O)cc32)no1` [Example 2-32, 12-cyclohexyl-3-(5-methylisoxazol-3-ylmethoxy)-6,7-dihydro-5-oxa-7a-azadibenzo[a,e]azulene-9-carboxylic acid], which IC50 is on record?
Its IC50 is < 100 nM.

How did the IC50 turn out when `CC(C)(C)OC(=O)NCCOc1ccc2c(c1)OCCn1c-2c(C2CCCCC2)c2ccc(C(=O)O)cc21` [Example 2-33, 3-[2-(tert-butoxycarbonylamino)ethoxy]-12-cyclohexyl-6,7-dihydro-5-oxa-7a-azadibenzo[a,e]azulene-9-carboxylic acid] was run?
Its IC50 is < 100 nM.

With `Cc1nc(COc2ccc3c(c2)OCCn2c-3c(C3CCCCC3)c3ccc(C(=O)O)cc32)cs1` [Example 2-34, 12-cyclohexyl-3-(2-methylthiazol-4-ylmethoxy)-6,7-dihydro-5-oxa-7a-azadibenzo[a,e]azulene-9-carboxylic acid] as the molecule, how does the IC50 read?
Its IC50 is < 100 nM.

For `CC(C)(C)OC(=O)N1CCC[C@H]1COc1ccc2c(c1)OCCn1c-2c(C2CCCCC2)c2ccc(C(=O)O)cc21` [Example 2-35, 3-[(S)-1-(tert-butoxycarbonyl)pyrrolidin-2-ylmethoxy]-12-cyclohexyl-6,7-dihydro-5-oxa-7a-azadibenzo[a,e]azulene-9-carboxylic acid], which IC50 is on record?
Its IC50 is < 100 nM.

`COC(=O)NCCOc1ccc2c(c1)OCCn1c-2c(C2CCCCC2)c2ccc(C(=O)O)cc21` [Example 2-36, 12-cyclohexyl-3-[2-(methoxycarbonylamino)ethoxy]-6,7-dihydro-5-oxa-7a-azadibenzo[a,e]azulene-9-carboxylic acid] was tested. Which IC50 did it give?
The IC50 was < 100 nM.

`COC(=O)N1CCC[C@H]1COc1ccc2c(c1)OCCn1c-2c(C2CCCCC2)c2ccc(C(=O)O)cc21` [Example 2-37, 12-cyclohexyl-3-((S)-1-methoxycarbonylpyrrolidin-2-ylmethoxy)-6,7-dihydro-5-oxa-7a-azadibenzo[a,e]azulene-9-carboxylic acid] was tested. Which IC50 did it give?
The IC50 was < 100 nM.

For `O=C(O)c1ccc2c(C3CCCCC3)c3n(c2c1)CCOc1cc(OCCN2CCOC2=O)ccc1-3` [Example 2-38, 12-cyclohexyl-3-[2-(2-oxooxazolidin-3-yl)ethoxy]-6,7-dihydro-5-oxa-7a-azadibenzo[a,e]azulene-9-carboxylic acid], which IC50 is on record?
Its IC50 is < 100 nM.

`O=C(O)c1ccc2c(C3CCCCC3)c3n(c2c1)CCOc1c(OCc2ccccc2)cccc1-3` [Example 2-39, 4-benzyloxy-12-cyclohexyl-6,7-dihydro-5-oxa-7a-azadibenzo[a,e]azulene-9-carboxylic acid] was tested. Which IC50 did it give?
Its IC50 is < 100 nM.

How did the IC50 turn out when `CC(C)(C)OC(=O)N1CC[C@H](Oc2ccc3c(c2)OCCn2c-3c(C3CCCCC3)c3ccc(C(=O)O)cc32)C1` [Example 2-40, 3-[(S)-1-(tert-butoxycarbonyl)pyrrolidin-3-yloxy]-12-cyclohexyl-6,7-dihydro-5-oxa-7a-azadibenzo[a,e]azulene-9-carboxylic acid] was run?
Its IC50 is < 100 nM.

How did the IC50 turn out when `CC(C)(C)OC(=O)N[C@H](COc1ccc2c(c1)OCCn1c-2c(C2CCCCC2)c2ccc(C(=O)O)cc21)Cc1ccccc1` [Example 2-41, 3-((S)-2-tert-butoxycarbonylamino-3-phenylpropoxy)-12-cyclohexyl-6,7-dihydro-5-oxa-7a-azadibenzo[a,e]azulene-9-carboxylic acid] was run?
The IC50 was < 100 nM.

Which IC50 does the source give for `O=C(O)c1ccc2c(C3CCCCC3)c3n(c2c1)CCOc1cc(O[C@H]2CCNC2)ccc1-3` [Example 2-42, 12-cyclohexyl-3-((S)-pyrrolidin-3-yloxy)-6,7-dihydro-5-oxa-7a-azadibenzo[a,e]azulene-9-carboxylic acid monohydrochloride] here?
The IC50 was < 100 nM.

With `CC(C)[C@@H](COc1ccc2c(c1)OCCn1c-2c(C2CCCCC2)c2ccc(C(=O)O)cc21)NC(=O)OC(C)(C)C` [Example 2-43, 3-((S)-2-tert-butoxycarbonylamino-3-methylbutoxy)-12-cyclohexyl-6,7-dihydro-5-oxa-7a-azadibenzo[a,e]azulene-9-carboxylic acid] as the molecule, how does the IC50 read?
The IC50 was < 100 nM.

Which IC50 does the source give for `CS(=O)(=O)N1CCCC(Oc2ccc3c(c2)OCCn2c-3c(C3CCCCC3)c3ccc(C(=O)O)cc32)C1` (centres unmarked) [Example 2-44, 12-cyclohexyl-3-(1-methanesulfonylpiperidin-3-yloxy)-6,7-dihydro-5-oxa-7a-azadibenzo[a,e]azulene-9-carboxylic acid] here?
Its IC50 is < 100 nM.

For `CN1CCCCC1COc1ccc2c(c1)OCCn1c-2c(C2CCCCC2)c2ccc(C(=O)O)cc21` (centres unmarked) [Example 2-45, 12-cyclohexyl-3-(1-methylpiperidin-2-ylmethoxy)-6,7-dihydro-5-oxa-7a-azadibenzo[a,e]azulene-9-carboxylic acid], which IC50 is on record?
The IC50 was < 100 nM.

For `O=C(O)c1ccc2c(C3CCCCC3)c3n(c2c1)CCOc1cc(OC2CCCNC2)ccc1-3` (centres unmarked) [Example 2-46, 12-cyclohexyl-3-(piperidin-3-yloxy)-6,7-dihydro-5-oxa-7a-azadibenzo[a,e]azulene-9-carboxylic acid monohydrochloride], which IC50 is on record?
Its IC50 is < 100 nM.

For `NC(=O)c1ccc2c(C3CCCCC3)c3n(c2c1)CCOc1cc(OCc2cc(N4CCCC4=O)ccc2N2CCOCC2)ccc1-3` [Example 2-47, 12-cyclohexyl-3-[2-(morpholin-4-yl)-5-(2-oxopyrrolidin-1-yl)benzyloxy]-6,7-dihydro-5-oxa-7a-azadibenzo[a,e]azulene-9-carboxamide monohydrochloride], which IC50 is on record?
The IC50 was < 100 nM.

`CS(=O)(=O)c1ccc(N2CCOCC2)c(COc2ccc3c(c2)OCCn2c-3c(C3CCCCC3)c3ccc(C(N)=O)cc32)c1` [Example 2-48, 12-cyclohexyl-3-[5-methanesulfonyl-2-(morpholin-4-yl)benzyloxy]-6,7-dihydro-5-oxa-7a-azadibenzo[a,e]azulene-9-carboxamide monohydrochloride] was tested. Which IC50 did it give?
The IC50 was < 100 nM.

With `COC(=O)N[C@H](COc1ccc2c(c1)OCCn1c-2c(C2CCCCC2)c2ccc(C(=O)O)cc21)Cc1ccccc1` [Example 2-49, 12-cyclohexyl-3-((S)-2-methoxycarbonylamino-3-phenylpropoxy)-6,7-dihydro-5-oxa-7a-azadibenzo[a,e]azulene-9-carboxylic acid] as the molecule, how does the IC50 read?
The IC50 was < 100 nM.

With `COC(=O)N1CC[C@H](Oc2ccc3c(c2)OCCn2c-3c(C3CCCCC3)c3ccc(C(=O)O)cc32)C1` [Example 2-50, 12-cyclohexyl-3-((S)-1-methoxycarbonylpyrrolidin-3-yloxy)-6,7-dihydro-5-oxa-7a-azadibenzo[a,e]azulene-9-carboxylic acid] as the molecule, how does the IC50 read?
The IC50 was < 100 nM.

With `CC(C)[C@@H](COc1ccc2c(c1)OCCn1c-2c(C2CCCCC2)c2ccc(C(=O)O)cc21)NS(C)(=O)=O` [Example 2-51, 12-cyclohexyl-3-((S)-2-methanesulfonylamino-3-methylbutoxy)-6,7-dihydro-5-oxa-7a-azadibenzo[a,e]azulene-9-carboxylic acid] as the molecule, how does the IC50 read?
Its IC50 is < 100 nM.

Which IC50 does the source give for `COC(=O)Nc1ccccc1Oc1ccc2c(c1)OCCn1c-2c(C2CCCCC2)c2ccc(C(=O)O)cc21` [Example 2-52, 12-cyclohexyl-3-[2-(methoxycarbonylamino)phenoxy]-6,7-dihydro-5-oxa-7a-azadibenzo[a,e]azulene-9-carboxylic acid] here?
Its IC50 is < 100 nM.

`O=C(O)c1ccc2c(C3CCCCC3)c3n(c2c1)CCOc1c(OCCN2CCCCC2)cccc1-3` [Example 2-53, 12-cyclohexyl-4-[2-(piperidin-1-yl)ethoxy]-6,7-dihydro-5-oxa-7a-azadibenzo[a,e]azulene-9-carboxylic acid hydrochloride] was tested. Which IC50 did it give?
Its IC50 is < 100 nM.

Which IC50 does the source give for `O=C(O)c1ccc(NC(=O)C2(NC(=O)c3ccc4c(C5CCCCC5)c5n(c4c3)CCOc3ccccc3-5)CCC2)nc1` [Example 2-54, 6-({1-[(12-cyclohexyl-6,7-dihydro-5-oxa-7a-azadibenzo[a,e]azulene-9-carbonyl)amino]cyclobutanecarbonyl}amino)nicotinic acid] here?
The IC50 was < 100 nM.

For `O=C(O)CNC(=O)C1(NC(=O)c2ccc3c(C4CCCCC4)c4n(c3c2)CCOc2ccccc2-4)CCC1` [Example 2-55, ({1-[(12-cyclohexyl-6,7-dihydro-5-oxa-7a-azadibenzo[a,e]azulene-9-carbonyl)amino]cyclobutanecarbonyl}amino)acetic acid], which IC50 is on record?
Its IC50 is < 100 nM.

With `O=C(NC1(C(=O)NC2(C(=O)O)CCC2)CCC1)c1ccc2c(C3CCCCC3)c3n(c2c1)CCOc1ccccc1-3` [Example 2-151, 1-({1-[(12-cyclohexyl-6,7-dihydro-5-oxa-7a-azadibenzo[a,e]azulene-9-carbonyl)amino]cyclobutanecarbonyl}amino)cyclobutanecarboxylic acid] as the molecule, how does the IC50 read?
Its IC50 is < 100 nM.

With `COC(=O)c1ccc2nc(C3(NC(=O)c4ccc5c(C6CCCCC6)c6n(c5c4)CCOc4ccccc4-6)CCC3)[nH]c2c1` [Example 2-152, methyl 2-{1-[(12-cyclohexyl-6,7-dihydro-5-oxa-7a-azadibenzo[a,e]azulene-9-carbonyl)amino]cyclobutyl}-3H-benzimidazole-5-carboxylate] as the molecule, how does the IC50 read?
Its IC50 is < 100 nM.

For `O=C(O)c1ccc(N[C@@H]2CCCC[C@H]2NC(=O)c2ccc3c(C4CCCCC4)c4n(c3c2)CCOc2ccccc2-4)cc1` [Example 2-153, 4-{(1R,2R)-2-[(12-cyclohexyl-6,7-dihydro-5-oxa-7a-azadibenzo[a,e]azulene-9-carbonyl)amino]cyclohexylamino}benzoic acid], which IC50 is on record?
Its IC50 is < 100 nM.

`COCC(C)(NC(=O)c1ccc2c(C3CCCCC3)c3n(c2c1)CCOc1ccccc1-3)C(=O)O` (centres unmarked) [Example 2-154, 2-[(12-cyclohexyl-6,7-dihydro-5-oxa-7a-azadibenzo[a,e]azulene-9-carbonyl)amino]-3-methoxy-2-methylpropionic acid] was tested. Which IC50 did it give?
Its IC50 is 100 to 1000 nM.

`CC(C)(C)OC(=O)N1CCC(NC(=O)c2ccc3c(C4CCCCC4)c4n(c3c2)CCOc2ccccc2-4)(C(=O)Nc2ccc(/C=C/C(=O)O)cc2)CC1` [Example 2-155, tert-butyl 4-[4-((E)-2-carboxyvinyl)phenylcarbamoyl]-4-[(12-cyclohexyl-6,7-dihydro-5-oxa-7a-azadibenzo[a,e]azulene-9-carbonyl)amino]piperidine-1-carboxylate] was tested. Which IC50 did it give?
Its IC50 is < 100 nM.
